Data set [1] concerns the target T1, PltM (Pseudomonas protegens, UniProt Q4KCZ3). The data set can be described thus: Halogenating competition assays in 1:1 or 10:1 mixtures of two halide salts (Assay 2a-2e), LC-MS. Type of data set: biochemical. As to the method: To establish if hetero-dihalogenation by PltM could be observed, halogenating competition assays in 1:1 or 10:1 mixtures of two different halide salts were performed (Assay 2). The reactions contained the same components as above except single halide salts were replaced with either a 1:1/NaCl:NaBr (Assay 2a), 1:1/NaCl:NaI (Assay 2b), or 1:1/NaBr:NaI (Assay 2c) mixtures (100 mM of each halide). The reactions were initiated by adding NADPH under N2. A 1:1/NaCl:NaBr reaction was also performed with 200 mM of each halide to test occurrence of homo-di- or hetero-chlorination/bromination, and 10:1/NaCl:NaI (Assay 2d) and 10:1/NaBr:NaI (Assay 2e) mixtures with 200 mM of NaCl or NaBr and 20 mM of NaI were tested to check whether chlorination or bromination could occur in the presence of iodide and whether iodination can occur with chlorination or bromination to yield a C1,I-substrate or Br,I-substrate. The reactions were incubated and processed as described above in Assay 1.
(§1) The halogenation reaction products were analyzed by HPLC or LC-MS by injecting 10 μL of each sample. The compounds were separated by Reversed-phase HPLC at the flow rate of 0.2 mL/min by using the following program: eluent A=H2O; eluent B=MeCN; gradient=2% B for 5 min, increase to 100% B over a 30 min period, stay at 100% B for 9 min, decrease to 2% B over a 1 min period, and re-equilibrate the column at 2% B for 30 min.
(§2) For HPLC analysis, the molecules were observed by absorbance at λ=275 nm as described above. As necessary, the following mass spectrometer was operated in negative and positive modes with the following parameters: For negative mode, mass range, 80-600 m/z in profile mode; temperature, 550° C. and ion spray voltage floating, −4500 V, and for positive mode, mass range, 80-600 m/z in profile mode; temperature, 550° C. and ion spray voltage floating, 4500 V. The presence of each compound was analyzed by extracted ion chromatograph (XIC) with the expected mass ±0.05 Da for Assay 1 and Assay 2 and ±0.005 Da for Assay 3 (FIGS. 2A-C, 8-13, and 17-37; Tables 3-4 and 7).

For data set [2], the target named is T1, PltM. The data set can be described thus: Optimized in vitro PltM halogenation assay (PltM, SsuE, GDH), overnight overall yield by HPLC. In kind it is biochemical. The following applies: optimized in vitro conditions. The method, then:
To increase production of halogenated molecules and decrease the amount of NADPH required, the above in vitro assay was optimized by using an additional enzyme, glucose dehydrogenase (GDH). […] The overall yield of halogenation products was determined for reactions run overnight for several substrates (Table 8). Conversion of the substrate to halogenated products was monitored by HPLC at λ=275-320 nm, where the absorbance of molecules is not affected by halogenation, and quantified as fraction of reaction species (%).
The time course experiments were performed in duplicate. Compound 1 was unstable under these optimized conditions, and it was not tested. The in vitro analysis of K87A mutant was performed overnight in 100 μL reaction mixture by using the compound 11 as a substrate. Wild-type PltM was used as a positive control, and no enzyme reaction was used as a negative control. In all above reactions, the compounds were extracted with EtOAc (4×100 μL) and dried under gentle air flow.
as §1, §2

Data set [3] concerns PltM. The data set can be described thus: Cell-based activity assay of PltM (Assay 3), wild-type PltM. The following applies: cells expressing wild-type PltM; 1 added to culture. More on the design: species or system E. coli BL21 (DE3). As to the method: (§3) E. coli BL21 (DE3) cells were transformed with ppltM-pET28a, ppltMK87A-pET28a, ppltML111Y-pET28a, ppltMS404Y-pET28a, and ppltA-pET28a. The ppltA-pET28a plasmid overexpressing the halogenase PltA whose substrate is pyrrolyl-S-PltL (a peptidyl carrier protein-linked pyrrole) was used as a negative control. Five colonies from each transformant were cultured in 2×500 mL of LB medium (for ppltM-pET28a, ppltML111Y-pET28a, and ppltMS404Y-pET28a) and 1×500 mL of LB medium (for ppltMK87A-pET28a and ppltA-pET28a) with 50 μg/mL kanamycin at 37° C. and 200 rpm until attenuance of 0.2 at 600 nm. The cultures were then moved to 25° C. until attenuance of 0.5. Protein expression was induced by adding 0.2 mM IPTG to all […] flasks, and the cultures were incubated with shaking for 1 h. 12.5 μg/mL of compound 1 was added to 1×500 mL of LB medium containing ppltM-pET28a, ppltMK87A-pET28a, ppltML111Y-pET28a, ppltMS404Y-pET28a, and ppltA-pET28a. Compound 1 was not added to the three remaining flasks (negative controls). After additional incubation for 20 h, the cells were pelleted at 5,000 g for 10 min, and the supernatant was collected. The supernatant was extracted with EtOAc (3×330 mL), which was dried in vacuo. […]
(§4) The halogenation reaction products were analyzed by HPLC or LC-MS by injecting 10 μL of each sample. […]
(§5) For HPLC analysis, the molecules were observed by absorbance at λ=275 nm as described above. […]

A further data set deals with PltM K87A. The data set can be described thus: Cell-based activity assay (Assay 3), PltM K87A. More on the design: species or system E. coli BL21 (DE3). To be noted: cultures expressing PltM K87A. As to the method:
as §3, §4, §5

Another data set deals with PltM L111Y. The data set can be described thus: Cell-based activity assay (Assay 3), PltM L111Y. More on the design: species or system E. coli BL21 (DE3). The following applies: cells expressing L111Y mutant. The method, then:
as §3, §4, §5

Another data set deals with PltM S404Y. The data set can be described thus: Cell-based activity assay (Assay 3), PltM S404Y. More on the design: species or system E. coli BL21 (DE3). The following applies: cells expressing S404Y mutant. As to the method:
as §3, §4, §5

The target of another data set is T2, PltA (Pseudomonas fluorescens, UniProt Q4KCZ0).
T2 construct: expressed in transfected cells; host or cells: E. coli BL21 (DE3)
T2 sequence (Q4KCZ0 whole entry): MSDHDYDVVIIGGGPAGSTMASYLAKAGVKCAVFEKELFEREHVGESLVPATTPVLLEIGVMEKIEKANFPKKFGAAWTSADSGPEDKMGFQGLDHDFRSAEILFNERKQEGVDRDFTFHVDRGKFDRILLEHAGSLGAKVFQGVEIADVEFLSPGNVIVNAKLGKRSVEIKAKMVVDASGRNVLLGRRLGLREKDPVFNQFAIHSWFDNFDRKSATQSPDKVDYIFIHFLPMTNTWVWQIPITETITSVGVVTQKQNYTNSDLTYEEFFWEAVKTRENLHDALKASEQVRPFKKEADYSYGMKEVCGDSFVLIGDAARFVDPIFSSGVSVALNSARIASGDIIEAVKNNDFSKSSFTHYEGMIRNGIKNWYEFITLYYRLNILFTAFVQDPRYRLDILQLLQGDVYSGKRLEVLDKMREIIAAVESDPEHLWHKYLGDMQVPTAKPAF
The data set can be described thus: Cell-based activity assay (Assay 3), PltA negative control. To be noted: cultures expressing PltA (negative control). More on the design: species or system E. coli BL21 (DE3). The method, then:
as §3, §4, §5

T1 sequence (Q4KCZ3 entry or part of it): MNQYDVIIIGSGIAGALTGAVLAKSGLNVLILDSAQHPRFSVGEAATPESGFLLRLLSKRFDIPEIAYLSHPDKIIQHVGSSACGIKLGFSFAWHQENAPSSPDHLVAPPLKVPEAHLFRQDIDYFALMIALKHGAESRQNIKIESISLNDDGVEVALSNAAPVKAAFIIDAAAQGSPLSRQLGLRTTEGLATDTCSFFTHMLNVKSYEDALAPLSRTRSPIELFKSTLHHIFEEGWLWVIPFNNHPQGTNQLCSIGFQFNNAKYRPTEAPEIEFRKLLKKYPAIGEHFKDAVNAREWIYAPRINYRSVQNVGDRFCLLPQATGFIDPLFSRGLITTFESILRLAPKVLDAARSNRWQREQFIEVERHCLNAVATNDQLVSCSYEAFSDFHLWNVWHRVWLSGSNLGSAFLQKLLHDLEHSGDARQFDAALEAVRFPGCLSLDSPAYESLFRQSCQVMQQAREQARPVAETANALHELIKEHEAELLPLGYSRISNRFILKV

Turning to `Oc1cc(O)cc(O)c1` [Compound 1, phloroglucinol], the “products of competitive halogenation” value on PltM [1] (10-fold molar excess of NaBr over NaI) was “mono-brominated, mono-iodinated, and diiodinated 1 were identified”; on PltM [1] (10-fold molar excess of NaCl over NaI) it was “all possible mono- and dihalogenated products were identified, including chloro-iodinated 1”; at PltM [1] (two halides (Cl/Br, Cl/I or Br/I) at equimolar ratios), “mono-halogenated products of either halogen and diiodinated 1 where NaI was used”. The “stability under optimized reaction conditions” value at PltM [2] is recorded as “unstable”. The “halogenation in fermentation culture” value in the data set with PltM [3] is “generated mono- and dichlorinated 1”; in the data set with PltM K87A, “No halogenated product was observed”; in the data set with PltM L111Y it was “product yield was significantly reduced compared to wild-type”; in the data set on PltM S404Y it was “product yield was significantly reduced compared to wild-type”; on PltA it was “No halogenated product was observed”.

Source of the values: patent US20200299671A1, “IMMOBILIZED MULTI-ENZYMATIC HALOGENATION SYSTEM” (priority 2019, published 2020).
